Experimental data taken from ChEMBL document CHEMBL1201862, “PubChem BioAssay data set” (2004).
Active and inactive are the calls of the source.

Key:
SUMO-activating enzyme = SUMO-activating enzyme (Homo sapiens, UniProt Q9UBT2); assay: blockers of UBC9-mediated SUMO conjugation – biochemical, AlphaScreen, SUMOylation inhibitor project, confirmation (AID 2018); assay type: functional
[1] = target: T1, Lysine-specific demethylase 4C (Homo sapiens, UniProt Q9H3R0); assay: inhibition of JMJD2C H3K9me3 demethylation – biochemical, DELFIA europium, cherry-picked samples, dose response (AID 488835); assay type: functional
T1 sequence (Q9H3R0 whole entry): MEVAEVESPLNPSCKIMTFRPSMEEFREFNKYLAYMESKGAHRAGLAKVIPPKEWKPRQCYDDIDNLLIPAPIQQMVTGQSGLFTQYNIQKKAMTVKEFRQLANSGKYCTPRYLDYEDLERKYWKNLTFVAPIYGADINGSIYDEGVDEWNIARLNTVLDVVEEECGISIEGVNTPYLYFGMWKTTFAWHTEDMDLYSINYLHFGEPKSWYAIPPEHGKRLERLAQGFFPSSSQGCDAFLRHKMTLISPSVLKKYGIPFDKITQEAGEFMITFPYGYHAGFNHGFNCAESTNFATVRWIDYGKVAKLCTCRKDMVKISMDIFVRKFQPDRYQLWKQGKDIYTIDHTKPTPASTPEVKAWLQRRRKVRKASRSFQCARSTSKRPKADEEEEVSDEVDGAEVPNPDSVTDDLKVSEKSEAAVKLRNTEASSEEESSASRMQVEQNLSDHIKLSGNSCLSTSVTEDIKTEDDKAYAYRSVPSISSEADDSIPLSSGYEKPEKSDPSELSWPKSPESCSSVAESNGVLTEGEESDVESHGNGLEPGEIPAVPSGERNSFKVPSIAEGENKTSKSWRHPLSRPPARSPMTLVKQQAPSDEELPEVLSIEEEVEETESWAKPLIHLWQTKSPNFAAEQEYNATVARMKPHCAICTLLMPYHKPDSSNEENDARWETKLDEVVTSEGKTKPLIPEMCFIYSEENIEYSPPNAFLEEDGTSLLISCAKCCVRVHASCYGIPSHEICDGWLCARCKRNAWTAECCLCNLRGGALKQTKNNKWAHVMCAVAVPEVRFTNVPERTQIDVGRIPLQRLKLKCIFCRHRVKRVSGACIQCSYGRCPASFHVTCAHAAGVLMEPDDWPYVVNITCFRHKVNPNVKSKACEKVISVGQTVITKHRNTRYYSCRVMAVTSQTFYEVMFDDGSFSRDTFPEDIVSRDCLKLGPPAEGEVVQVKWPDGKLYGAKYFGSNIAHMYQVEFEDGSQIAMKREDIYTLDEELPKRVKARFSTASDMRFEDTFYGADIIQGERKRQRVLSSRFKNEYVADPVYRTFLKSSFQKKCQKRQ

Insulin-degrading enzyme = target: T2, Insulin-degrading enzyme (Homo sapiens, UniProt P14735); assay: Dose Response: Fluorescence polarization-based cell-based high throughput dose response assay for inhibitors of insulin-degrading enzyme (IDE). [Related pubchem assays: 434962 (Primary screen (IDE inhibitors in singlicate)), 449730 (Counterscreen (Cytotoxicity in triplicate)), 435028 (Confirmation (IDE inhibitors in triplicate)), 434984 (Summary …; assay type: functional
T2 sequence (P14735 whole entry): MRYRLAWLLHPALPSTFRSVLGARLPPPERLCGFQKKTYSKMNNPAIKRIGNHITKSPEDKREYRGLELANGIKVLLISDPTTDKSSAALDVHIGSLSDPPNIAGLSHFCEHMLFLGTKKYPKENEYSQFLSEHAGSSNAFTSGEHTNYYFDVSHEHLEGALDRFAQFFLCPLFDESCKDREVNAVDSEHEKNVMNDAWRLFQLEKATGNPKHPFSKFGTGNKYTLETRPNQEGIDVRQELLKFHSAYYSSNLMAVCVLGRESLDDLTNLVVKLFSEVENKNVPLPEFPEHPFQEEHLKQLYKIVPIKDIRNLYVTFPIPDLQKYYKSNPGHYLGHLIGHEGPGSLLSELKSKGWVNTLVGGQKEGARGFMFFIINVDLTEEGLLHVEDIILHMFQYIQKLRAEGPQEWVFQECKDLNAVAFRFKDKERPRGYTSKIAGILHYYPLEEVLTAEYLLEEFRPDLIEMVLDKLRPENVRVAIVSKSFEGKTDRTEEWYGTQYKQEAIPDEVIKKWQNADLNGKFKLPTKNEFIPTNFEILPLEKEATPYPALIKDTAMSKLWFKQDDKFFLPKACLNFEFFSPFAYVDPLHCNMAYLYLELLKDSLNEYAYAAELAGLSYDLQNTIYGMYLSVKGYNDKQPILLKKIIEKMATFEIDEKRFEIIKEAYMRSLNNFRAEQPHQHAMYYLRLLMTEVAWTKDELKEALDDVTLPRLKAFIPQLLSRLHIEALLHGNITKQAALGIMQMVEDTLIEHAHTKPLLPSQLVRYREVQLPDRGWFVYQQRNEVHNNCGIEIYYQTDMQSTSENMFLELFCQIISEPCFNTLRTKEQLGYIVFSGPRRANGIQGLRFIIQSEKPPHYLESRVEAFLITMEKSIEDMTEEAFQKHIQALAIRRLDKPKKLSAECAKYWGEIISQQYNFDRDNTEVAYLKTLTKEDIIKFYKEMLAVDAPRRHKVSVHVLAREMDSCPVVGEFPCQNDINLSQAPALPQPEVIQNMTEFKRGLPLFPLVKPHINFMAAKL

[2] = Counterscreen for IDE inhibitors: Luminescence-based cell-based high throughput dose response assay to identify compounds that are cytotoxic to HEK cells. [Related pubchem assays: 434962 (Primary screen (IDE inhibitors in singlicate)), 449730 (Counterscreen (Cytotoxicity in triplicate)), 435028 (Confirmation (IDE inhibitors in triplicate)) …; assay type: functional; conditions: HEK293
[3] = target: Glyceraldehyde-3-phosphate dehydrogenase (Homo sapiens, UniProt P04406)
Glyceraldehyde-3-phosphate dehydrogenase, sequence (P04406 whole entry): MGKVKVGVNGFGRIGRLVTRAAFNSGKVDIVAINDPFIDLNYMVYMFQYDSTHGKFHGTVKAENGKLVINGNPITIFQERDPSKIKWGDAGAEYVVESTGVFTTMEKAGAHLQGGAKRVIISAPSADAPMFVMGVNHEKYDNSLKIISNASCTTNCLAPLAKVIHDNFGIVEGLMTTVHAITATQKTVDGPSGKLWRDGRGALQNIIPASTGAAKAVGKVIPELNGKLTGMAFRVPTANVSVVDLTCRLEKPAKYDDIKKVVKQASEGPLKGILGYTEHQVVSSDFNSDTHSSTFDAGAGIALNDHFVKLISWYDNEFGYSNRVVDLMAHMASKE

[4] = target: T3, Alkaline phosphatase, tissue-nonspecific isozyme (Homo sapiens, UniProt P05186); assay: potency against alkaline phosphatase TNAP – biochemical, luminescent, dose response, SAR follow-up (AID 1056)
T3 sequence (P05186 whole entry): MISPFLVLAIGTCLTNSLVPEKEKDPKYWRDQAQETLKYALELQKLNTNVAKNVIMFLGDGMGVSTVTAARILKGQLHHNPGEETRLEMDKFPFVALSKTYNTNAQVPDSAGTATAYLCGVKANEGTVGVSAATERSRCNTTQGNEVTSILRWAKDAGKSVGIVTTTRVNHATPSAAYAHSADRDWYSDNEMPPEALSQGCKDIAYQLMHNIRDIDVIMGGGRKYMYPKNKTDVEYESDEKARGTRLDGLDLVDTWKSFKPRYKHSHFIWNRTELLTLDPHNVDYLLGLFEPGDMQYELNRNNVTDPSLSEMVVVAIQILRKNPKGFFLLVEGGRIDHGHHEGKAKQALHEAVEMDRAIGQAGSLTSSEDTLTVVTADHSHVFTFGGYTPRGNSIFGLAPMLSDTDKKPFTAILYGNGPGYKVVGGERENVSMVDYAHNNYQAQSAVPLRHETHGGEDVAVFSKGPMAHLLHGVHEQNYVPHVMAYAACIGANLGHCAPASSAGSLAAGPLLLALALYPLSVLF

[5] = MIN6 cell viability loss – mouse insulinoma, cytotoxicity control, dose response (AID 2122); assay type: functional;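 also: confirmatory high-throughput counterscreen run to flag cytotoxic compounds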
[6] = decrease of insulin promoter-GFP reporter – imaging, high-content screening, mouse beta cells (AID 1628); assay type: functional; conditions: MIN6
[7] = target: Intestinal-type alkaline phosphatase (Homo sapiens, UniProt P09923); assay: human intestinal alkaline phosphatase activators, dose response, biochemical, luminescence, uHTS hits (AID 463120); assay type: functional
Intestinal-type alkaline phosphatase, sequence (P09923 whole entry): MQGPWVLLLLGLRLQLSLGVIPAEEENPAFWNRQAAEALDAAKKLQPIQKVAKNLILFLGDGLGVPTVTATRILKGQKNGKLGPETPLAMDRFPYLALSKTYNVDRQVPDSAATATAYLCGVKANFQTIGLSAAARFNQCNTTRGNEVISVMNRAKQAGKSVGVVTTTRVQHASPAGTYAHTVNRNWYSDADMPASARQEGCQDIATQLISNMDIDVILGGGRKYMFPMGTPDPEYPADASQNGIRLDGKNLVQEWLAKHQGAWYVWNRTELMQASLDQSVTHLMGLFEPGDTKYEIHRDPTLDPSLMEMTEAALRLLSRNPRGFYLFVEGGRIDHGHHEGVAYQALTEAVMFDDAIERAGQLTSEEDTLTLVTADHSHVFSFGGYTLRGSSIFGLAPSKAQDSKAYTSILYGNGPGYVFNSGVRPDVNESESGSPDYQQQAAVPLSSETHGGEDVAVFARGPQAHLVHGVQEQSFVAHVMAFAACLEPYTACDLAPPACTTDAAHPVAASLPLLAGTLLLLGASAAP

SUMO-activating enzyme, sequence (Q9UBE0 whole entry): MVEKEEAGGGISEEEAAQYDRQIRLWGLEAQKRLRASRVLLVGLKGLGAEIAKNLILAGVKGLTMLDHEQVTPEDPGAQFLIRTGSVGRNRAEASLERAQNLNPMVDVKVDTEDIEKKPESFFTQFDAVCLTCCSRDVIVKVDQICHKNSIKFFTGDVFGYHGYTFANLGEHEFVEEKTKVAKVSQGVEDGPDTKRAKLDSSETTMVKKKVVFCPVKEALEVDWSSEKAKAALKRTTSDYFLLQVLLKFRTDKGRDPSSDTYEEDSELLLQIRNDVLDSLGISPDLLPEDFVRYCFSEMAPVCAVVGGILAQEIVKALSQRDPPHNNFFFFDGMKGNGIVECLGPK
SUMO-activating enzyme, sequence (Q9UBT2 whole entry): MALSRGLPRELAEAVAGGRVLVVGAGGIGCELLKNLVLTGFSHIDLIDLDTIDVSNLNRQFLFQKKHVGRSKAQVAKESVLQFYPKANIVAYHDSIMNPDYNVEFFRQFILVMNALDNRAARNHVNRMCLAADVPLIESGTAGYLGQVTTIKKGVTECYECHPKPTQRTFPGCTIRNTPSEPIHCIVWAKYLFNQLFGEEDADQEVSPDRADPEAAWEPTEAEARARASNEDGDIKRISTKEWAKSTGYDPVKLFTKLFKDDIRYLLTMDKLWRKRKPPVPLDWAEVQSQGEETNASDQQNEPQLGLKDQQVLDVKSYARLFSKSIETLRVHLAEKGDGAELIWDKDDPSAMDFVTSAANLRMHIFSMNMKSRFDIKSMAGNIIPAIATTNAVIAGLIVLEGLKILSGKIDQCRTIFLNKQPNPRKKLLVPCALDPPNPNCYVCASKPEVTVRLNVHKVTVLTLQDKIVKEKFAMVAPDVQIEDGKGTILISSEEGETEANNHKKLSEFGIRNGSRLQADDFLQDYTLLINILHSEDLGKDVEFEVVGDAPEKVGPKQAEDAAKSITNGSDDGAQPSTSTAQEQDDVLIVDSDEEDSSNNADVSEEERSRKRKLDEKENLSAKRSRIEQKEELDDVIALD

CCCC(=O)Nc1ccc2oc(-c3cncc(Br)c3)nc2c1
IC50 (SUMO-activating enzyme): 90.5 µM (active)

Cc1cccc(N2C(=O)NC(=O)/C(=C\c3cnc(-c4ccccc4)nc3)C2=O)c1
AC50 [1]: 15.2 µM (active)

O=C(O)CC12CC3CC(C1)CC(n1ncc(NCc4ccccc4Cl)c(Cl)c1=O)(C3)C2
IC50 (Insulin-degrading enzyme): 9.59 µM (active)
IC50 [2]: > 55.7 µM (not active)

O=C1c2ccccc2C(=O)N1c1nnc(CCc2ccccc2)[nH]1
IC50 [3]: > 100 µM (not active)
IC50 [4]: 66.5 µM (active)

CC(C)C(=O)Nc1cccc(C(=O)N2CCCCC2C)c1 (centres undefined)
IC50 [5]: 1.99 µM (active)
IC50 [6]: 2.43 µM (active)

Cc1ccc(O)c(N/C=C/C(=O)c2ccc(F)cc2)c1
EC50 [7]: > 100 µM (inactive)
